The record followed here is ChEMBL document CHEMBL2385030, “Crystallographic Investigation and Selective Inhibition of Mutant Isocitrate Dehydrogenase” (ACS Med Chem Lett, 2013).

For one assay, the system named is WI-38. Kind of assay: Cytotoxicity against human WI38 cells assessed as growth inhibition after 48 hrs by MTS assay. The class given is cell-based. The settings on record: WI-38, 48 h.
The target of assay [1] is Isocitrate dehydrogenase [NADP] cytoplasmic (Homo sapiens, UniProt O75874). Briefly: Inhibition of wild type IDH1 (unknown origin) expressed in Escherichia coli BL21 using […] as substrate incubated for 5 mins prior to substrate addition measured every 30 secs.

As usually defined, the EC50 is the concentration at which the effect is half-maximal. As usually defined, the Ki is the dissociation constant of the complex between target and ligand, obtained from inhibition or displacement.

Chain of Isocitrate dehydrogenase [NADP] cytoplasmic (O75874 whole entry): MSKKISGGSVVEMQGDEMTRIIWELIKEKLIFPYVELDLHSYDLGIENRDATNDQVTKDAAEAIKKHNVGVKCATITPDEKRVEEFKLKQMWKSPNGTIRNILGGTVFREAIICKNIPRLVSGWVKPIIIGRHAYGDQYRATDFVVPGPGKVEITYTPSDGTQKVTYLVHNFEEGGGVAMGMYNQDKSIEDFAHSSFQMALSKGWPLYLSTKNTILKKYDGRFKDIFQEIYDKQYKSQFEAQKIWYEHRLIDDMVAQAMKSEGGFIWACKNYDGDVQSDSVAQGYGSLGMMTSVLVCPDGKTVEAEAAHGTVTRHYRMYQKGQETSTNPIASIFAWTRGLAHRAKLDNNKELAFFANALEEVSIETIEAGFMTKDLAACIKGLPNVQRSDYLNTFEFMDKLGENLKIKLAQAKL

For `O=c1cccc(Cc2ccccc2)n1O`, the EC50 in the assay with WI-38 was > 50 µM.
For the compound `Cc1cc(-c2ccccc2)n(O)c(=O)c1`, the inhibition constant Ki in assay [1] is > 50 µM.
As to `Cc1cc(Cc2ccccc2)n(O)c(=O)c1`, the EC50 in the assay with WI-38 is > 50 µM.
For `CC(C)c1cc(Cc2ccccc2)n(O)c(=O)c1`, the 50% effective concentration (EC50) with WI-38 was > 50 µM.
With `Cc1cc(Cc2ccc(O)cc2)n(O)c(=O)c1`, the half-maximal effective concentration (EC50) in the assay with WI-38 is > 50 µM.
